# Reference: publication PMC520810, “Endoplasmic reticulum degradation impedes olfactory G-protein coupled receptor functional expression” (BMC Cell Biology, 2004)
# Target: T1, mOREG olfactory receptor (Olfr73) (Mus musculus, UniProt Q920P2)
# T1 construct: gene Or5d18; N-terminal fusion with the first 20 amino acids of rhodopsin (Rho20-mOREG); untagged mOREG also measured
# T1 sequence (Q920P2 1-313): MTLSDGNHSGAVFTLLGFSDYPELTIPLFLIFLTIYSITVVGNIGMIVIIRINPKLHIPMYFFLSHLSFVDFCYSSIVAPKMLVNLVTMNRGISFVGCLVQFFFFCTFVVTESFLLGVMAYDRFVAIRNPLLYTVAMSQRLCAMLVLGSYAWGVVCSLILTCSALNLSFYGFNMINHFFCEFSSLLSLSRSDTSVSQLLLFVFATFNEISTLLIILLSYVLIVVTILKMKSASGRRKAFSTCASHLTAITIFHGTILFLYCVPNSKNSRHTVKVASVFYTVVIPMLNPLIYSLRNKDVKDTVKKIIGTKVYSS
# Assay: calcium imaging (fluo-4) in HEK293 cells co-expressing Rho-mOREG and olfactory CNG channel
# Type: cell-based
# Source text: calcium imaging (fluo-4) in HEK293 cells co-expressing Rho-mOREG and olfactory CNG channel on mOREG olfactory receptor (Olfr73) | Responses to eugenol, a ligand for mOREG, were detected in cells co-expressing Rho-mOREG and CNG
compound,measurement,value
C=CCc1ccc(O)c(OC)c1 [eugenol],EC50,20.8 µM
